Test results reported in patent publication US4069346A, “Compositions and methods for anesthetizing an animal using deuterated analogues of halothane and chloroform” (The Dow Chemical Company, priority 1977, dated 1978).

Experiments:
male Fischer 344 rats [1] = assay: Anesthetic properties on inhalation, halothane vs deuterated analogue (Example 2); assay type: in vivo; settings: 0.75 volume/volume, 2 hours
Protocol: (§1) Three groups of 6 male Fischer 344 rats (6 months of age, 200-300 grams) were exposed to room air and 0.75 volume/volume halothane or the deuterated analogue for a period of 2 hours. Following exposure, all animals were maintained for 72 hours. […] The serum inorganic bromide concentration was determined using a specific ion electrode (Orion).

[2] = Serum inorganic bromide concentration 72 hours after inhalation exposure; assay type: in vivo, male Fischer 344 rats; settings: 0.75 volume/volume, inhaled 2 hours, analysis of variance
Protocol: as §1

liver [3] = assay: SGPT as indication of liver toxicity after anesthesia with halothane and deuterated halothane (Example 4); assay type: in vivo, Fischer 344 rats; settings: 1 percent (v/v) in air, two hours; for SGPT levels, comparison with the control: 24 hours; for SGPT: blood collected after 24 hours, control 18.8
Protocol: (§2) Appl. Pharmacol., 9, 139-151 (1966), which used the serum glutamic-pyruvic transaminase (SGPT) level as an indicator of liver damage.
Using the same techniques as described in Example 3 above, Fischer 344 rats were anesthetized for two hours with halothane and deuterated halothane using an anesthetic concentration of 1 percent (v/v) in air. After 24 hours, the animals were sacrificed and the blood collected from each. SGPT was run on each blood sample as in indication of liver toxicity.

liver [4] = settings: cited from earlier work; for damage to the liver: literature: Anesth. 45, 622 (1976) and 43, 392 (1975)
liver [5] = assay: Relative hepatotoxicity of chloroform: serum glutamic-pyruvic transaminase (SGPT) level as indicator of liver damage after inhalation (Example 3); assay type: in vivo, male Fischer 344 rats; settings: 0.36 percent (v/v); for SGPT level: inhaled two hours, blood collected after 24 hours, room air control 24.8 mμ/ml ± 2, groups of 10
From the text: as §2

male Fischer 344 rats [6] = settings: 0.36 percent (v/v), two hours
Protocol: Halothane and deuterated halothane were vaporized by metering the liquid compounds at a controlled rate into a temperature regulated vaporization flask held at 150° C. The vapor was swept into the air inlet of a 30 liter glass exposure chamber at a rate of 6 liters/minute. The concentration of the anesthetic in the exposure chamber was monitored by gas-liquid chromatography using direct gas sampling loops.
Using the same equipment to expose the animals as that of Example 2, three groups of 10 male Fischer 344 rats were exposed to room air, 0.36 percent (v/v) chloroform and 0.36 percent (v/v) deuterated chloroform for two hours. The animals were maintained two to a cage for 24 hours following the exposure. At the end of this period, the animals were decapitated and blood was collected in plastic centrifuge tubes and allowed to clot. The SGPT levels were determined using a commercially available method. SGPT concentrations of each group of animals were compared with the other groups by nonparametric analysis of variance.

For `FC(F)(F)C(Cl)Br` (stereo not drawn) [halothane, 2-bromo-2-chloro-1,1,1-trifluorethane], the “anesthetic properties, difference between halothane and the deuterated analogue” value (male Fischer 344 rats [1]) was “No difference in anesthetic properties”, the “serum bromide levels, comparison of halothane with deuterated halothane” value [2] was “significantly higher than those treated with deuterated halothane, p<0.01” and the “SGPT levels, comparison with the control” value (liver [3]) was “significant increase in SGPT levels”. The SGPT (liver [3]) was 24.0 mμ/ml, the “damage to the liver” value (liver [4]) was “in some instances they cause damage to the liver” and the “inorganic bromide in the blood” value (liver [4]; literature: Anesthes. 44, 194 (1976)) was “elevation of inorganic bromide in the blood”.

For `[2H]C(Cl)(Cl)Cl` [deuterated chloroform], the SGPT level (liver [5]) was 38.3 mμ/ml, the “SGPT level, difference between chloroform and deuterated chloroform treated groups” value (liver [5]; two hours, 24 hours, nonparametric analysis of variance) was “significant at p<0.05” and the “anesthetic properties, difference between chloroform and deuterated chloroform” value (male Fischer 344 rats [6]) was “no difference in the anesthetic properties”.

For `ClC(Cl)Cl` [chloroform], the SGPT level (liver [5]) is given as 56.3 mμ/ml, the “anesthetic properties, difference between chloroform and deuterated chloroform” value (male Fischer 344 rats [6]) is given as “no difference in the anesthetic properties” and the “damage to the liver” value (liver [4]) is given as “in some instances they cause damage to the liver”.

In the case of `[2H]C(Cl)(Br)C(F)(F)F` (stereo not drawn) [deuterated halothane, 2-bromo-2-chloro-1,1,1-trifluoroethane-d], the “anesthetic properties, difference between halothane and the deuterated analogue” value (male Fischer 344 rats [1]) is reported as “No difference in anesthetic properties”, the “SGPT levels, comparison with the control” value (liver [3]) is reported as “not significantly different from the control” and the SGPT (liver [3]) is reported as 19.6 mμ/ml.
